Earlier results, collected in patent US5688981A, “Ethylenediaminetriacetic acid and N-acyl ethylenediaminetriacetic acid silver chelating agents and surfactants” (Hampshire Chemical Corp., priority 1996, dated 1997).

Assays:
[1] = test system: protein
[2] = background

| Compound | concentration with propensity towards protein precipitation [1] | toxicity on oral administration [2] |
| --- | --- | --- |
| [Ag][I] [silver iodide] | 10^-4 M | – |
| CC(O)C(=O)[O-].[Ag+] (centres unmarked) [silver lactate] | 10^-4 M | – |
| O=[N+]([O-])[O-].[Ag+] [silver nitrate] | – | can cause severe gastroenteritis which may be fatal |
| O=C([O-])CC(O)(CC(=O)[O-])C(=O)[O-].[Ag+].[Ag+].[Ag+] [silver citrate] | 10^-4 M | – |
| [Ag+].[Ag+].[O-2] [silver oxide] | 10^-4 M | – |
